Assay [1] deals with Human immunodeficiency virus type 1 reverse transcriptase (Human immunodeficiency virus 1) (UniProt Q72547). Nature of the assay: Inhibition of HIV1 reverse transcriptase assessed as reduction in [3H]dTTP incorporation by measuring proportional residual activity ratio at 20 uM using poly(rA)/oligo(dT) as template/primer after 30 mins by scintillation counting method relative to control.

The target is the same in assay [2]. In words: Inhibition of HIV1 reverse transcriptase assessed as reduction in [3H]dTTP incorporation by measuring proportional residual activity ratio at 300 uM using poly(rA)/oligo(dT) as template/primer after 30 mins by scintillation counting method.

The results in this text go back to ChEMBL document CHEMBL4371080, “Multiple weak intercalation as a strategy for the inhibition of polymerases” (Bioorg Med Chem Lett, 2019).

Where a SMILES comes first, the peptide text is derived from it. Bridges are numbered along the chain shown (N, C = ends). [ ]: non-standard residue; d: D form. The star is where a group is joined. ξ: configuration not given here. Quinoxaline2carbonyl = O=C(c1cnc2ccccc2n1)*; ξDap = NCC(N)C(=O)O

On to `NCC1NC(=O)C[C@@H](C(N)=O)NC(=O)CNC(=O)CNC(=O)C(CNC(=O)c2cnc3ccccc3n2)NC(=O)CNC(=O)C(CNC(=O)c2cnc3ccccc3n2)NC1=O` (stereo partly drawn) ([ξDap][ξDap](Quinoxaline2carbonyl)G[ξDap](Quinoxaline2carbonyl)GGD-NH2; lactam N-7), for which the Ratio in assay [1] stood at 0.11.

For `NCC1NC(=O)C[C@@H](C(N)=O)NC(=O)C(CNC(=O)c2cnc3ccccc3n2)NC(=O)CNC(=O)C(CNC(=O)c2cnc3ccccc3n2)NC(=O)CNC(=O)C(CNC(=O)c2cnc3ccccc3n2)NC1=O` (stereo partly drawn) ([ξDap][ξDap](Quinoxaline2carbonyl)G[ξDap](Quinoxaline2carbonyl)G[ξDap](Quinoxaline2carbonyl)D-NH2; lactam N-7), in assay [1], the Ratio stood at 0.18.

Regarding `NCC1NC(=O)C[C@@H](C(N)=O)NC(=O)C(CNC(=O)c2cnc3ccccc3n2)NC(=O)C(CNC(=O)c2cnc3ccccc3n2)NC(=O)CNC(=O)C(CNC(=O)c2cnc3ccccc3n2)NC(=O)CNC1=O` (stereo partly drawn) ([ξDap]G[ξDap](Quinoxaline2carbonyl)G[ξDap](Quinoxaline2carbonyl)[ξDap](Quinoxaline2carbonyl)D-NH2; lactam N-7), the Ratio in assay [1] was determined as 0.15.

As for `NC(=O)C[C@@H](NC(=O)[C@@H](N)Cc1c[nH]c2ccccc12)C(=O)N[C@@H](Cc1c[nH]c2ccccc12)C(N)=O`, the Ratio in assay [2] turned out to be 0.6. Regarding `NCC1NC(=O)C[C@@H](C(N)=O)NC(=O)CNC(=O)C(CNC(=O)c2cnc3ccccc3n2)NC(=O)C(CNC(=O)c2cnc3ccccc3n2)NC(=O)C(CNC(=O)c2cnc3ccccc3n2)NC(=O)CNC1=O` (stereo partly drawn) ([ξDap]G[ξDap](Quinoxaline2carbonyl)[ξDap](Quinoxaline2carbonyl)[ξDap](Quinoxaline2carbonyl)GD-NH2; lactam N-7), the Ratio in assay [1] worked out at 0.08.

Consider `NCC1NC(=O)C[C@@H](C(N)=O)NC(=O)C(CNC(=O)c2cnc3ccccc3n2)NC(=O)CNC(=O)C(CNC(=O)c2cnc3ccccc3n2)NC(=O)CNC(=O)CNC1=O` (stereo partly drawn) ([ξDap]GG[ξDap](Quinoxaline2carbonyl)G[ξDap](Quinoxaline2carbonyl)D-NH2; lactam N-7), for which, in assay [1], the Ratio was determined as 0.18. Consider `NC(=O)[C@H](Cc1c[nH]c2ccccc12)NC(=O)CNC(=O)[C@@H](N)Cc1c[nH]c2ccccc12`, for which the Ratio in assay [2] is 0.4. In the case of `NC(=O)[C@@H](Cc1c[nH]c2ccccc12)NC(=O)CCCNC(=O)[C@H](N)Cc1c[nH]c2ccccc12`, in assay [2], the Ratio was 0.36. Take `NCC1NC(=O)C[C@@H](C(N)=O)NC(=O)C(CNC(=O)c2cnc3ccccc3n2)NC(=O)CNC(=O)CNC(=O)C(CNC(=O)c2cnc3ccccc3n2)NC(=O)C(CNC(=O)c2cnc3ccccc3n2)NC1=O` (stereo partly drawn) ([ξDap][ξDap](Quinoxaline2carbonyl)[ξDap](Quinoxaline2carbonyl)GG[ξDap](Quinoxaline2carbonyl)D-NH2; lactam N-7): the Ratio in assay [1] is 0.06. With `NC(=O)C[C@H](NC(=O)[C@@H](N)Cc1c[nH]c2ccccc12)C(=O)N[C@@H](Cc1c[nH]c2ccccc12)C(N)=O`, the Ratio in assay [2] stood at 0.62. The same measure, in the same setting: the value for `NC(=O)[C@@H](Cc1c[nH]c2ccccc12)NC(=O)CNC(=O)[C@@H](N)Cc1c[nH]c2ccccc12` was 0.74. Regarding `NCC1NC(=O)C[C@@H](C(N)=O)NC(=O)CNC(=O)C(CNC(=O)c2cnc3ccccc3n2)NC(=O)CNC(=O)C(CNC(=O)c2cnc3ccccc3n2)NC(=O)C(CNC(=O)c2cnc3ccccc3n2)NC1=O` (stereo partly drawn) ([ξDap][ξDap](Quinoxaline2carbonyl)[ξDap](Quinoxaline2carbonyl)G[ξDap](Quinoxaline2carbonyl)GD-NH2; lactam N-7), the Ratio in assay [1] is 0.03.

Turning to `NC(=O)[C@H](Cc1c[nH]c2ccccc12)NC(=O)[C@@H](N)Cc1c[nH]c2ccccc12`, in assay [2], the Ratio was 0.65.

For the compound `NC(=O)[C@@H](Cc1c[nH]c2ccccc12)NC(=O)[C@@H](N)Cc1c[nH]c2ccccc12`, the Ratio in assay [2] stood at 0.45. Still for that read-out and setting: the result for `NC(=O)C[C@@H](NC(=O)[C@H](N)Cc1c[nH]c2ccccc12)C(=O)N[C@H](Cc1c[nH]c2ccccc12)C(N)=O` reads 0.47; that for `NC(=O)[C@@H](Cc1c[nH]c2ccccc12)NC(=O)[C@H](N)Cc1c[nH]c2ccccc12`, 0.7; that for `NC(=O)C[C@@H](NC(=O)[C@H](N)Cc1c[nH]c2ccccc12)C(=O)N[C@@H](Cc1c[nH]c2ccccc12)C(N)=O`, 0.34. For `NCC1NC(=O)C[C@@H](C(N)=O)NC(=O)C(CNC(=O)c2cnc3ccccc3n2)NC(=O)C(CNC(=O)c2cnc3ccccc3n2)NC(=O)CNC(=O)CNC(=O)CNC1=O` (stereo partly drawn) ([ξDap]GGG[ξDap](Quinoxaline2carbonyl)[ξDap](Quinoxaline2carbonyl)D-NH2; lactam N-7), in assay [1], the Ratio amounted to 0.71. On the same count and under the same terms, the value for `NCC1NC(=O)C[C@@H](C(N)=O)NC(=O)CNC(=O)CNC(=O)C(CNC(=O)c2cnc3ccccc3n2)NC(=O)CNC(=O)CNC1=O` (stereo partly drawn) ([ξDap]GG[ξDap](Quinoxaline2carbonyl)GGD-NH2; lactam N-7) was 0.66; that for `NCC1NC(=O)C[C@@H](C(N)=O)NC(=O)CNC(=O)C(CNC(=O)c2cnc3ccccc3n2)NC(=O)C(CNC(=O)c2cnc3ccccc3n2)NC(=O)CNC(=O)CNC1=O` (stereo partly drawn) ([ξDap]GG[ξDap](Quinoxaline2carbonyl)[ξDap](Quinoxaline2carbonyl)GD-NH2; lactam N-7) was 0.57.

With `NCC1NC(=O)C[C@@H](C(N)=O)NC(=O)CNC(=O)CNC(=O)C(CNC(=O)c2cnc3ccccc3n2)NC(=O)C(CNC(=O)c2cnc3ccccc3n2)NC(=O)C(CNC(=O)c2cnc3ccccc3n2)NC1=O` (stereo partly drawn) ([ξDap][ξDap](Quinoxaline2carbonyl)[ξDap](Quinoxaline2carbonyl)[ξDap](Quinoxaline2carbonyl)GGD-NH2; lactam N-7), the Ratio in assay [1] stood at 0.04. Consider `NC(=O)[C@@H](Cc1c[nH]c2ccccc12)NC(=O)CNC(=O)[C@H](N)Cc1c[nH]c2ccccc12`, for which the Ratio in assay [2] worked out at 0.76. Turning to `NCC1NC(=O)C[C@@H](C(N)=O)NC(=O)C(CNC(=O)c2cnc3ccccc3n2)NC(=O)CNC(=O)C(CNC(=O)c2cnc3ccccc3n2)NC(=O)C(CNC(=O)c2cnc3ccccc3n2)NC(=O)CNC1=O` (stereo partly drawn) ([ξDap]G[ξDap](Quinoxaline2carbonyl)[ξDap](Quinoxaline2carbonyl)G[ξDap](Quinoxaline2carbonyl)D-NH2; lactam N-7), the Ratio in assay [1] stood at 0.14. Take `NCC1NC(=O)C[C@@H](C(N)=O)NC(=O)CNC(=O)C(CNC(=O)c2cnc3ccccc3n2)NC(=O)CNC(=O)C(CNC(=O)c2cnc3ccccc3n2)NC(=O)CNC1=O` (stereo partly drawn) ([ξDap]G[ξDap](Quinoxaline2carbonyl)G[ξDap](Quinoxaline2carbonyl)GD-NH2; lactam N-7): in assay [1], the Ratio was determined as 0.09. In the case of `NC(=O)[C@H](Cc1c[nH]c2ccccc12)NC(=O)[C@H](N)Cc1c[nH]c2ccccc12`, the Ratio in assay [2] worked out at 0.61.

Consider `NC(=O)[C@H](Cc1c[nH]c2ccccc12)NC(=O)CCCNC(=O)[C@H](N)Cc1c[nH]c2ccccc12`, for which the Ratio in assay [2] is 0.43. Same read-out and setting: the value for `NC(=O)C[C@H](NC(=O)[C@H](N)Cc1c[nH]c2ccccc12)C(=O)N[C@@H](Cc1c[nH]c2ccccc12)C(N)=O` was 0.69. Consider `NCC1NC(=O)C[C@@H](C(N)=O)NC(=O)C(CNC(=O)c2cnc3ccccc3n2)NC(=O)CNC(=O)CNC(=O)C(CNC(=O)c2cnc3ccccc3n2)NC(=O)CNC1=O` (stereo partly drawn) ([ξDap]G[ξDap](Quinoxaline2carbonyl)GG[ξDap](Quinoxaline2carbonyl)D-NH2; lactam N-7), for which the Ratio in assay [1] was found to be 0.13. For the compound `NCC1NC(=O)C[C@@H](C(N)=O)NC(=O)CNC(=O)CNC(=O)C(CNC(=O)c2cnc3ccccc3n2)NC(=O)C(CNC(=O)c2cnc3ccccc3n2)NC(=O)CNC1=O` (stereo partly drawn) ([ξDap]G[ξDap](Quinoxaline2carbonyl)[ξDap](Quinoxaline2carbonyl)GGD-NH2; lactam N-7), the Ratio in assay [1] is 0.38.

Regarding `NCC1NC(=O)C[C@@H](C(N)=O)NC(=O)C(CNC(=O)c2cnc3ccccc3n2)NC(=O)C(CNC(=O)c2cnc3ccccc3n2)NC(=O)CNC(=O)CNC(=O)C(CNC(=O)c2cnc3ccccc3n2)NC1=O` (stereo partly drawn) ([ξDap][ξDap](Quinoxaline2carbonyl)GG[ξDap](Quinoxaline2carbonyl)[ξDap](Quinoxaline2carbonyl)D-NH2; lactam N-7), the Ratio in assay [1] stood at 0.13. Still for that read-out and setting: the result for `NCC1NC(=O)C[C@@H](C(N)=O)NC(=O)CNC(=O)C(CNC(=O)c2cnc3ccccc3n2)NC(=O)CNC(=O)CNC(=O)C(CNC(=O)c2cnc3ccccc3n2)NC1=O` (stereo partly drawn) ([ξDap][ξDap](Quinoxaline2carbonyl)GG[ξDap](Quinoxaline2carbonyl)GD-NH2; lactam N-7) reads 0.02. For the compound `NC(=O)C[C@H](NC(=O)[C@@H](N)Cc1c[nH]c2ccccc12)C(=O)N[C@H](Cc1c[nH]c2ccccc12)C(N)=O`, the Ratio in assay [2] worked out at 0.44.

`NCC1NC(=O)C[C@@H](C(N)=O)NC(=O)CNC(=O)C(CNC(=O)c2cnc3ccccc3n2)NC(=O)C(CNC(=O)c2cnc3ccccc3n2)NC(=O)CNC(=O)C(CNC(=O)c2cnc3ccccc3n2)NC1=O` (stereo partly drawn) ([ξDap][ξDap](Quinoxaline2carbonyl)G[ξDap](Quinoxaline2carbonyl)[ξDap](Quinoxaline2carbonyl)GD-NH2; lactam N-7): in assay [1], the Ratio came out at 0.09.

Turning to `NC(=O)[C@H](Cc1c[nH]c2ccccc12)NC(=O)CNC(=O)[C@H](N)Cc1c[nH]c2ccccc12`, the Ratio in assay [2] was found to be 0.63. The same measure, in the same setting: the result for `NC(=O)C[C@H](NC(=O)[C@H](N)Cc1c[nH]c2ccccc12)C(=O)N[C@H](Cc1c[nH]c2ccccc12)C(N)=O` reads 0.69; that for `NC(=O)[C@@H](Cc1c[nH]c2ccccc12)NC(=O)CCNC(=O)[C@@H](N)Cc1c[nH]c2ccccc12`, 0.46. As for `NCC1NC(=O)C[C@@H](C(N)=O)NC(=O)CNC(=O)CNC(=O)CNC(=O)C(CNC(=O)c2cnc3ccccc3n2)NC(=O)C(CNC(=O)c2cnc3ccccc3n2)NC1=O` (stereo partly drawn) ([ξDap][ξDap](Quinoxaline2carbonyl)[ξDap](Quinoxaline2carbonyl)GGGD-NH2; lactam N-7), the Ratio in assay [1] stood at 0.3. As to `NC(=O)C[C@@H](NC(=O)[C@@H](N)Cc1c[nH]c2ccccc12)C(=O)N[C@H](Cc1c[nH]c2ccccc12)C(N)=O`, the Ratio in assay [2] was 0.35.
